Values joined by “and” are separate entries in the source; they are usually repeats but may differ in a detail not shown here. Equal values may be shown once. Toxic doses and inconclusive results are not listed.
Tested on: P388 leukemia ip, CD2F1 mice, survival T/C
Experiment: NCI In Vivo Anticancer Drug Screen. Data for tumor model P388 Leukemia (intraperitoneal) in CD2F1 (CDF1) mice
Settings: endpoint: median survival time, higher = longer survival
How it was run: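 Mice carrying the transplanted tumor received test compound or vehicle. Survival was recorded in each group, and the value is the treated-group measurement divided by that of the vehicle-treated control group.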

[1] = dose: 60.0 mg/kg/injection, schedule: Q01DX005 (ip), vehicle: Klucel (hydroxypropylcellulose) (HPC)
[2] = dose: 120.0 mg/kg/injection, schedule: Q01DX005 (ip), vehicle: Klucel (hydroxypropylcellulose) (HPC)
[3] = dose: 50.0 mg/kg/injection, schedule: Q01DX005 (ip), vehicle: saline with Tween-80
[4] = dose: 100.0 mg/kg/injection, schedule: Q01DX005 (ip), vehicle: saline with Tween-80
[5] = dose: 200.0 mg/kg/injection, schedule: Q01DX005 (ip), vehicle: saline with Tween-80
[6] = dose: 60.0 mg/kg/injection, schedule: Q01DX005 (ip), vehicle: saline with Tween-80
[7] = dose: 120.0 mg/kg/injection, schedule: Q01DX005 (ip), vehicle: saline with Tween-80
[8] = dose: 240.0 mg/kg/injection, schedule: Q01DX005 (ip), vehicle: saline with Tween-80
[9] = dose: 100.0 mg/kg/injection, schedule: Q01DX001 (ip), vehicle: saline
[10] = dose: 200.0 mg/kg/injection, schedule: Q01DX001 (ip), vehicle: saline
[11] = dose: 50.0 mg/kg/injection, schedule: Q01DX009 (ip), vehicle: Klucel (hydroxypropylcellulose) (HPC)
[12] = dose: 100.0 mg/kg/injection, schedule: Q01DX009 (ip), vehicle: Klucel (hydroxypropylcellulose) (HPC)
[13] = dose: 200.0 mg/kg/injection, schedule: Q01DX009 (ip), vehicle: Klucel (hydroxypropylcellulose) (HPC)
[14] = dose: 50.0 mg/kg/injection, schedule: Q01DX009 (ip), vehicle: saline with Tween-80
[15] = dose: 100.0 mg/kg/injection, schedule: Q01DX009 (ip), vehicle: saline with Tween-80
[16] = dose: 200.0 mg/kg/injection, schedule: Q01DX009 (ip), vehicle: saline with Tween-80

In the case of `CCCCCCCC(=O)OCC(=O)[C@]1(O)Cc2c(O)c3c(c(O)c2[C@@H](OC2CC(N)C(O)C(C)O2)C1)C(=O)c1c(OC)cccc1C3=O` (stereo partly drawn), the T/C (dose: 0.5 mg/kg/injection, schedule: Q01DX009 (ip), vehicle: saline sonified) was 159 % of control, the T/C (dose: 0.5 mg/kg/injection, schedule: Q01DX009 (ip), vehicle: saline with Tween-80) was 178 % of control and the T/C (dose: 0.5 mg/kg/injection, schedule: Q01DX009 (ip), vehicle: water) was 158 % of control. The T/C (dose: 1.0 mg/kg/injection, schedule: Q01DX009 (ip), vehicle: saline sonified) was 190 % of control, the T/C (dose: 1.0 mg/kg/injection, schedule: Q01DX009 (ip), vehicle: saline with Tween-80) was 185 % of control and the T/C (dose: 1.0 mg/kg/injection, schedule: Q01DX009 (ip), vehicle: water) was 181 % of control. For the same compound, the T/C (dose: 1.73 mg/kg/injection, schedule: Q04DX003 (ip), vehicle: water) was 172 % of control, the T/C (dose: 2.0 mg/kg/injection, schedule: Q01DX009 (ip), vehicle: saline sonified) was 231 % of control and the T/C (dose: 2.0 mg/kg/injection, schedule: Q01DX009 (ip), vehicle: water) was 247 % of control. The T/C (dose: 2.88 mg/kg/injection, schedule: Q04DX003 (ip), vehicle: water) was 198 % of control, the T/C (dose: 4.0 mg/kg/injection, schedule: Q01DX009 (ip), vehicle: saline with Tween-80) was 209 % of control and 92 % of control and the T/C (dose: 4.0 mg/kg/injection, schedule: Q01DX009 (ip), vehicle: water) was 104 % of control. For the same compound, the T/C (dose: 4.8 mg/kg/injection, schedule: Q04DX003 (ip), vehicle: water) was 202 % of control, the T/C (dose: 8.0 mg/kg/injection, schedule: Q01DX009 (ip), vehicle: saline with Tween-80) was 114 % of control and the T/C (dose: 8.0 mg/kg/injection, schedule: Q04DX003 (ip), vehicle: water) was 190 % of control. For the same compound, the T/C (dose: 13.3 mg/kg/injection, schedule: Q04DX003 (ip), vehicle: water) was 111 % of control.

For `Cc1ccc(-c2cc(=O)c3cc(C)c(C)c(C#N)c3o2)cc1`, the T/C (dose: 15.0 mg/kg/injection, schedule: Q01DX005 (ip), vehicle: Klucel (hydroxypropylcellulose) (HPC)) was 94 % of control, the T/C (dose: 30.0 mg/kg/injection, schedule: Q01DX005 (ip), vehicle: Klucel (hydroxypropylcellulose) (HPC)) was 87 % of control and 90 % of control and the T/C [1] was 90 % of control. The T/C [2] was 86 % of control and 88 % of control and the T/C (dose: 240.0 mg/kg/injection, schedule: Q01DX005 (ip), vehicle: Klucel (hydroxypropylcellulose) (HPC)) was 96 % of control.

For `Cc1ccc(S(=O)(=O)OC2C=CC(=O)C(OC(=O)c3ccccc3)C2OC(=O)c2ccccc2)cc1` (stereo not drawn), the T/C (dose: 50.0 mg/kg/injection, schedule: Q01DX001 (ip), vehicle: saline with Tween-80) was 102 % of control, the T/C (dose: 100.0 mg/kg/injection, schedule: Q01DX001 (ip), vehicle: saline with Tween-80) was 100 % of control and the T/C (dose: 200.0 mg/kg/injection, schedule: Q01DX001 (ip), vehicle: saline with Tween-80) was 91 % of control. For the same compound, the T/C (dose: 400.0 mg/kg/injection, schedule: Q01DX001 (ip), vehicle: saline with Tween-80) was 98 % of control.

For `COc1cc2c(cc1C(C)c1ccc(F)cc1)OCO2` (stereo not drawn), the T/C [3] was 98 % of control, the T/C [4] was 100 % of control and the T/C [5] was 107 % of control.

`Nc1nnc2nc(C(C(=O)/C=C\c3cccc(O)c3)c3nc4nnc(N)n4[nH]c3=O)c(=O)[nH]n12` was tested, and the T/C [3] was 95 % of control, the T/C [4] was 94 % of control and the T/C [5] was 100 % of control.

In the case of `c1cc(OCCOc2cccc3ocnc23)c2ncoc2c1`, the T/C [6] was 98 % of control and 92 % of control, the T/C [7] was 99 % of control and the T/C [8] was 86 % of control and 89 % of control.

`COC(=O)c1nc(N)nc(C(=O)OC)c1C(=O)c1ccccn1` was tested, and the T/C [1] was 101 % of control and the T/C [2] was 99 % of control.

With `NC(=O)N=Nc1cccc(Cl)c1` the T/C [3] was 98 % of control, the T/C [4] was 104 % of control and the T/C [5] was 104 % of control.

In the case of `CCN(CC)Cc1cc(Nc2nc(/C=C/c3ccc(Cl)cc3)nc(Cl)c2-c2ccc(Cl)cc2)ccc1O`, the T/C (dose: 25.0 mg/kg/injection, schedule: Q01DX001 (ip), vehicle: suspension in saline) was 107 % of control, the T/C (dose: 50.0 mg/kg/injection, schedule: Q01DX001 (ip), vehicle: suspension in saline) was 111 % of control and the T/C (dose: 50.0 mg/kg/injection, schedule: Q01DX005 (ip), vehicle: saline) was 111 % of control. For the same compound, the T/C [9] was 103 % of control, the T/C (dose: 100.0 mg/kg/injection, schedule: Q01DX001 (ip), vehicle: suspension in saline) was 100 % of control and 108 % of control and the T/C (dose: 100.0 mg/kg/injection, schedule: Q01DX005 (ip), vehicle: saline) was 116 % of control. For the same compound, the T/C [10] was 103 % of control, the T/C (dose: 200.0 mg/kg/injection, schedule: Q01DX001 (ip), vehicle: suspension in saline) was 108 % of control and 97 % of control and the T/C (dose: 200.0 mg/kg/injection, schedule: Q01DX005 (ip), vehicle: saline) was 103 % of control. For the same compound, the T/C (dose: 400.0 mg/kg/injection, schedule: Q01DX001 (ip), vehicle: saline) was 103 % of control and the T/C (dose: 400.0 mg/kg/injection, schedule: Q01DX001 (ip), vehicle: suspension in saline) was 108 % of control and 87 % of control.

For `CCOc1cccc2nncn12`, the T/C [9] was 102 % of control and the T/C [10] was 103 % of control.

`Cc1ccc(N=Cc2ccc(C=Nc3ccc(C)c(Cl)c3)cc2)cc1Cl` was tested, and the T/C [11] was 92 % of control, the T/C [12] was 91 % of control and the T/C [13] was 100 % of control.

`COc1ccc(C(C)c2cc(N=NC(N)=O)c(OC)cc2O)cc1` (stereo not drawn) was tested, and the T/C (dose: 12.5 mg/kg/injection, schedule: Q01DX005 (ip), vehicle: saline with Tween-80) was 94 % of control, the T/C (dose: 25.0 mg/kg/injection, schedule: Q01DX005 (ip), vehicle: saline with Tween-80) was 90 % of control and the T/C [3] was 90 % of control.

`CCCC(NC(=O)C(F)(F)F)C(=O)O` (stereo not drawn) was tested, and the T/C [14] was 91 % of control, the T/C [15] was 93 % of control and the T/C [16] was 106 % of control.

With `CNC(=O)OCc1c2ccncc2c(C)c2c1[nH]c1ccccc12` the T/C (dose: 6.25 mg/kg/injection, schedule: Q04DX002 (ip), vehicle: saline with Tween-80) was 163 % of control, the T/C (dose: 12.5 mg/kg/injection, schedule: Q04DX002 (ip), vehicle: saline with Tween-80) was 150 % of control and the T/C (dose: 25.0 mg/kg/injection, schedule: Q04DX002 (ip), vehicle: saline with Tween-80) was 153 % of control and 167 % of control. The T/C (dose: 50.0 mg/kg/injection, schedule: Q04DX002 (ip), vehicle: saline with Tween-80) was 109 % of control.

`Fc1cccc(F)c1C(Nc1nncs1)Nc1nncs1` was tested, and the T/C [6] was 108 % of control, the T/C [7] was 109 % of control and the T/C [8] was 160 % of control.

For `O=C(O)C(CCc1nc2ccccc2[nH]1)NS(=O)(=O)c1ccccc1` (stereo not drawn), the T/C (dose: 12.5 mg/kg/injection, schedule: Q01DX009 (ip), vehicle: saline with Tween-80) was 115 % of control, the T/C (dose: 25.0 mg/kg/injection, schedule: Q01DX009 (ip), vehicle: saline with Tween-80) was 95 % of control and the T/C [14] was 103 % of control and 91 % of control. For the same compound, the T/C [15] was 102 % of control and the T/C [16] was 102 % of control.

For `C/C=C1/CN2CCc3c4n(c5ccccc35)[C@H](C(=O)OC)[C@H]1C[C@@H]42`, the T/C (dose: 12.5 mg/kg/injection, schedule: Q01DX005 (ip), vehicle: acid diluted with saline) was 107 % of control, the T/C (dose: 25.0 mg/kg/injection, schedule: Q01DX005 (ip), vehicle: acid diluted with saline) was 94 % of control and the T/C (dose: 50.0 mg/kg/injection, schedule: Q01DX005 (ip), vehicle: acid diluted with saline) was 98 % of control. The T/C (dose: 100.0 mg/kg/injection, schedule: Q01DX005 (ip), vehicle: acid diluted with saline) was 100 % of control.

In the case of `Cc1ccc(NC(=S)SCc2ccc3c(c2)OCO3)cc1Br`, the T/C (dose: 12.5 mg/kg/injection, schedule: Q01DX009 (ip), vehicle: Klucel (hydroxypropylcellulose) (HPC)) was 122 % of control, the T/C (dose: 25.0 mg/kg/injection, schedule: Q01DX009 (ip), vehicle: Klucel (hydroxypropylcellulose) (HPC)) was 102 % of control and the T/C [11] was 120 % of control. The T/C (dose: 50.0 mg/kg/injection, schedule: Q01DX009 (ip), vehicle: suspension in saline) was 104 % of control, the T/C [12] was 115 % of control and the T/C (dose: 100.0 mg/kg/injection, schedule: Q01DX009 (ip), vehicle: suspension in saline) was 111 % of control. The T/C [13] was 116 % of control and the T/C (dose: 200.0 mg/kg/injection, schedule: Q01DX009 (ip), vehicle: suspension in saline) was 104 % of control.

For `c1ccc2c(c1)ccc1c(NCCCCCCNc3c4ccccc4nc4c3ccc3ccccc34)c3ccccc3nc12`, the T/C [11] was 93 % of control, the T/C [12] was 96 % of control and the T/C [13] was 105 % of control.

— PubChem BioAssay AID330 (DTP/NCI, 2004)
